# Experimental data as given in patent EP0351418B1, “VIRAL VECTOR SYSTEM FOR THE INTRODUCTION OF FOREIGN DNA […] INTO GA[…]” (SYNERGEN, INC., priority 1987, dated 1988).
# Tested on: HVT
# Experiment: Growth and plaque formation of HVT in CEF in the presence of AraT
# Assay type: cell-based, herpesvirus of turkeys (HVT)
# Excerpt: In HSV-infected cells, ¹²⁵IdC is incorporated into DNA only after it has been phosphorylated by the viral TK as described by Summers and Summers, J. Virol. 24: 314-318 (1977), specifically incorporated herein by reference. Moreover, growth of HVT in CEF is inhibited by the drug AraT, whereas uninfected CEF appears to be unaffected. AraT (1-beta-D-arabinofuranosyl-thymine obtained from Calbiochem) is lethal to cells only once it is incorporated into the DNA where it acts as a chain-terminator. Again by analogy to HSV, AraT-resistance is likely to be due to mutations in the thymidine kinase gene.
# AraT-resistant variants occur spontaneously in populations of FC126, and are isolated by growing cell-free virus as described by Calnek et al., Avian Dis. 16:52-56 (1972), specifically incorporated herein by reference, in CEF in the presence of 100 ug/ml AraT. Specifically, 150 mm tissue culture dishes are seeded with 2 X 10⁷ cells of secondary CEF. Two hours later the medium is removed, and 2 X 10⁴ pfu of cell-free HVT are adsorbed for 30 minutes. After adsorption, 30 ml of medium containing 100 ug/ml of AraT is added. Cells are fluid-changed every two days, always with AraT, and monolayers are screened for plaques 4-5 days post-infection at 40-fold magnfication using an inverted microscope. One AraT-resistant variant ATR° was found in 2 X 10⁵ pfu screened initially. Subsequent experiments have yielded AraT resistant HVT at least that frequency. ATR° remains stable for at least nine passages in the absence of AraT.
# In addition, wild-type HVT has a growth advantage over the AraT-resistant variants. These differences between the wild-type HVT and HVT that are AraT-resistant, form the basis for a marker-rescue assay that allows for the identification of the region of DNA, and thus the gene which confers resistance to AraT. DNA from the AraT resistant HVT (10 ug of total infected-cell DNA) is co-transfected with individual DNA clones (200 ng of plasmid DNA or 1 ug of phage DNA) representing the genome of HVT. […]
structure (smiles),measurement,setting,value
"Cc1cn([C@@H]2O[C@H](CO)[C@@H](O)[C@@H]2O)c(=O)[nH]c1=O [AraT, 1-beta-D-arabinofuranosyl-thymine]",effect on uninfected CEF,"AraT, uninfected CEF",unaffected
same,growth of HVT in CEF,in the presence of AraT,inhibited
same,plaque-forming ability of wild-type HVT,in the presence of AraT,completely inhibits
